ChEMBL document CHEMBL5620390, “A novel multifunctional mitochondrion-targeting NIR fluorophore probe inhibits tumour proliferation and metastasis through the PPARγ/ROS/β-catenin pathway” (Eur J Med Chem, 2023)
Active and inactive are the calls of the source. The rule behind the calls is not given here.

Columns and labels:
B16-F10 [1] = experiment: Induction of mitochondrial damage in mouse B16-F10 cells assessed as mitochondrial swelling at 2.5 uM incubated for 24 hrs by TEM analysis; assay type: functional, cell-based
B16-F10 [2] = experiment: Induction of ROS generation in mouse B16-F10 cells assessed as reduction in PPARgamma expression level at 1.25 uM incubated for 24 hrs; assay type: functional, cell-based
B16-F10 [3] = experiment: Induction of mitochondrial damage in mouse B16-F10 cells assessed as mitochondrial vacuolation at 2.5 uM incubated for 24 hrs by TEM analysis; assay type: functional, cell-based
B16-F10 [4] = experiment: Induction of mitochondrial damage in mouse B16-F10 cells assessed as increase in ROS production at 2.5 uM after 5 to 60 mins by DCFH-DA staining based flow cytometry analysis; assay type: functional, cell-based; conditions: time 5-60 min
A-375 [5] = experiment: Inhibition of Wnt/beta-catenin signaling in human A-375 cells assessed as reduction in TCF4 expression at 1.25 uM incubated for 24 hrs; assay type: cell-based
B16-F10 [6] = experiment: Induction of ROS generation in mouse B16-F10 cells assessed as reduction in SOD2 expression level at 0.31 to 1.25 uM incubated for 24 hrs; assay type: functional, cell-based; conditions: dose 0.31-1.25 µM
[7] = Renal toxicity in C57BL/6J mouse inoculated with mouse B16-F10 cells assessed as change in CREA level at 2 mg/kg, ip administered every other day for 22 days; assay type: organism-based; conditions: in vivo, 528 h, time 22 day
B16-F10 [8] = experiment: Inhibition of Wnt/beta-catenin signaling in mouse B16-F10 cells assessed as reduction in beta-catenin expression at 1.25 uM incubated for 24 hrs; assay type: cell-based
[9] = Toxicity in C57BL/6J mouse inoculated with mouse B16-F10 cells assessed as effect on heart morphology at 2 mg/kg, ip administered every other day for 22 days by H and E staining based assay; assay type: organism-based; conditions: in vivo, 528 h, time 22 day
A-375 [10] = experiment: Induction of ROS generation in human A-375 cells assessed as reduction in GPX1 expression level at 0.31 to 1.25 uM incubated for 24 hrs; assay type: functional, cell-based; conditions: dose 0.31-1.25 µM
B16-F10 [11] = experiment: Antitumor activity against mouse B16-F10 cells inoculated in mouse assessed as reduction in tumor metastasis at 2 mg/kg, ip administered every other day and measured on day 18 by H and E staining based assay; assay type: functional, organism-based; conditions: time 18.0 day
B16-F10 [12] = experiment: Antitumor activity against mouse B16-F10 cells inoculated in C57BL/6J mouse assessed as reduction in tumor volume at 0.5 to 2 mg/kg, ip administered every other day and measured on day 22; assay type: functional, organism-based; conditions: dose 0.5-2 mg/kg, time 22.0 day
A-375 [13] = experiment: Antitumor activity against human GFP-stained A-375 cells inoculated in zebrafish assessed as reduction in tumor growth by measuring tumor fluorescence intensity; assay type: functional, cell-based
B16-F10 [14] = experiment: Antitumor activity against mouse B16-F10 cells inoculated in mouse assessed as increase in E-cadherin expression at 2 mg/kg, ip administered every other day and measured on day 18 by immunohistochemistry analysis; assay type: functional, organism-based; conditions: time 18.0 day
A-375 [15] = experiment: Inhibition of colony formation in human A-375 cells at less than 0.63 uM by crystal violet staining based assay; assay type: functional, cell-based
[16] = Toxicity in mouse inoculated with mouse B16-F10 cells assessed as change in body weight at 2 mg/kg, ip administered every other day and measured on day 18; assay type: organism-based; conditions: in vivo, 432 h, time 18 day
B16-F10 [17] = experiment: Induction of ROS generation in mouse B16-F10 cells assessed as reduction in PPARgamma expression level at 1.25 uM preincubated with rosiglitazone for 24 hrs followed by compound addition for 24 hrs; assay type: functional, cell-based
[18] = Drug uptake in mouse B16-F10 cells mitochondria at 2.5 uM incubated for 25 mins by mito-tracker green dye based confocal laser scanning fluorescence microscopy analysis; assay type: ADME; conditions: b16-f10, 25 min
[19] = Drug uptake in human A-375 cells assessed as fluorescence intensity at 2.5 uM incubated for 1 hr by confocal laser scanning microscopic analysis; assay type: ADME, cell-based; conditions: a-375, 1 h
B16-F10 [20] = experiment: Inhibition of ROS generation in mouse B16-F10 cells at 1.25 uM preincubated with rosiglitazone for 2 hrs followed by wash out and compound addition for 1 hr by DCFH-DA staining based inverted fluorescence microscopic analysis; assay type: functional; parameters: scale not given: the % may be the effect or the level left
B16-F10 [21] = experiment: Induction of cell cycle arrest in mouse B16-F10 cells assessed as P21 protein accumulation at 0.31 to 1.25 uM after 24 hrs by Western blotting analysis; assay type: functional, cell-based; conditions: dose 0.31-1.25 µM
A-375 [22] = experiment: Induction of cell cycle arrest in human A-375 cells assessed as accumulation of cells at G0/G1 phase incubated for 24 hrs by PI staining based flow cytometry analysis (reference value: 12.05%); assay type: functional
[23] = Drug uptake in mouse B16-F10 cells implanted in C57BL/6J mouse assessed as fluorescence aggregation in tumor at 3 mg/kg, iv measured after 3 to 6 hrs; assay type: ADME, organism-based; conditions: in vivo, time 3-6 hrs
[24] = Toxicity in C57BL/6J mouse inoculated with mouse B16-F10 cells assessed as reduction in body weight at 2 mg/kg, ip administered every other day and measured after 14 days; assay type: organism-based; parameters: scale not given: the % may be the effect or the level left; conditions: in vivo, 336 h, time 14 day

Which results are given for CC[N+]1=C(/C=C/C2=C(Cl)C(=C/C=C3\N(CCCCCC(=O)O/C(=N/C4CCCCC4)NC4CCCCC4)c4ccccc4C3(C)C)/CCC2)C(C)(C)c2ccccc21.[Br-]?
Activity (B16-F10 [1]): Active; Activity (B16-F10 [2]): Active; Activity (B16-F10 [3]): Active; Activity (B16-F10 [4]): Active; inhibition (A-375 [5]): Active; Activity (B16-F10 [6]): Active; Activity [7]: Non-Toxic; inhibition (B16-F10 [8]): Active; Activity [9]: Non-Toxic; Activity (A-375 [10]): Active; Activity (B16-F10 [11]): Active; Activity (B16-F10 [12]): Active; Activity (A-375 [13]): Active; Activity (B16-F10 [14]): Active; inhibition (A-375 [15]): Active; Activity [16]: Non-Toxic; Activity (B16-F10 [17]): inactive; Drug uptake [18]: Active; Drug uptake [19]: Active; Activity (B16-F10 [20]): >50%; Activity (B16-F10 [21]): Active; Activity (A-375 [22]): 45.5%; Drug uptake [23]: Active; Activity [24]: 13.5%
